Values quoted from earlier work, collected in US9333174B2, “Use of simple amino acids to form porous particles” (Civitas Therapeutics, Inc., priority 1999, dated 2016).

Details: hydrophobicity scale on which glycine has the value 0.5; value of the amino acid itself

hydrophobicity	SMILES
0.943	CC[C@H](C)[C@H](N)C(=O)O [Isoleucine]
0.501	N[C@@H](Cc1ccccc1)C(=O)O [Phenylalanine]
0.5	NCC(=O)O [glycine]

SMILES	hydrophobicity
N[C@@H](CCC(=O)O)C(=O)O [Glutamate]	0.043
